Experimental data published in publication PMC7531004, “Discovery of gramicidin A analogues with altered activities by multidimensional screening of a one-bead-one-compound library” (Nature Communications, 2020).
Values joined by “and” are separate entries in the source; they are usually repeats but may differ in a detail not shown here. Identical values can stand only once. Like-named read-outs stand apart in the source and are kept apart here. Where a SMILES comes first, the peptide text is derived from it. [ ]: non-standard residue; d: D form. The star is where a group is joined. NHCH2CH2OH = OCCN*; For = O=C*

What was measured:
[1] = Membrane disruption assay of purified peptides (carboxyfluorescein leakage); assay type: biochemical; set-up: key: % lysis; Triton X-100 = 100%, DMSO = 0%; conditions: three replicate lines
[2] = H+/Na+ transport assay of purified peptides; conditions: for Supplementary Figure 5 dose-response value (H+/Na+ transport): three replicate lines
Procedure: First, we evaluated the ion channel function of 1 using liposomes. To mimic a negatively charged Gram-positive bacterial membrane, the liposomes were prepared as large unilamellar vesicles (LUVs) comprising a 19:1 mixture of egg yolk phosphatidylcholine (EYPC) and egg yolk phosphatidylglycerol (EYPG)[57]. Pyranine, a pH-dependent fluorescent dye[58], was encapsulated in the LUVs and a pH gradient was applied across the membrane. H^+/Na^+ transport induced by a peptide was monitored by changes in the fluorescence intensity of pyranine.

[3] = test system: Streptococcus pneumoniae NBRC 102642; conditions: for Antibacterial activity MIC: NBRC 102642; for antibacterial activity/MIC: S. pneumoniae
Method in brief: (§1)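 MICs by CLSI broth microdilution in cation-adjusted Mueller Hinton Broth, with 5% laked horse blood added for streptococci, over 64–0.00024 µg/mL peptide.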

[4] = test system: Streptococcus agalactiae JCM5671; conditions: for Antibacterial activity MIC: JCM5671; for antibacterial activity/MIC: S. agalactiae
Method in brief: as §1

[5] = test system: Listeria monocytogenes 10403S; conditions: for Antibacterial activity MIC: 10403S; for antibacterial activity/MIC: L. monocytogenes
Method in brief: as §1

[6] = test system: Streptococcus pyogenes SSI-9; conditions: for antibacterial activity/MIC: S. pyogenes; for Antibacterial activity MIC: SSI-9
Method in brief: as §1

[7] = test system: Enterococcus faecalis JCM5803; conditions: for antibacterial activity/MIC: E. faecalis; for Antibacterial activity MIC: JCM5803
Method in brief: as §1

[8] = test system: MSSA1 (methicillin-susceptible Staphylococcus aureus); assay type: cell-based
[9] = read-out: EC50, H+/Na+ transport assay, 1st experiment
[10] = read-out: EC50, H+/Na+ transport assay, 2nd experiment
[11] = read-out: EC50, H+/Na+ transport assay, 3rd experiment
[12] = read-out: H+/Na+ transport activity EC50, EYPC/EYPG (19:1) LUVs
[13] = read-out: H+/Na+ transport activity/EC50, mean ± SD of three independent experiments

| Compound | Supplementary Figure 1 dose-response value ([1]; concentration 0.000512 nM) | Supplementary Figure 1 dose-response value ([1]; concentration 0.00256 nM) | Supplementary Figure 1 dose-response value ([1]; concentration 0.0128 nM) | Supplementary Figure 1 dose-response value ([1]; concentration 0.064 nM) | Supplementary Figure 1 dose-response value ([1]; concentration 0.32 nM) | Supplementary Figure 1 dose-response value ([1]; concentration 1.6 nM) | Supplementary Figure 1 dose-response value ([1]; concentration 8 nM) | Supplementary Figure 1 dose-response value ([1]; concentration 40 nM) | Supplementary Figure 1 dose-response value ([1]; concentration 200 nM) | Supplementary Figure 1 dose-response value ([1]; concentration 1000 nM) | Supplementary Figure 1 dose-response value ([1]; concentration 5000 nM) | Supplementary Figure 5 dose-response value (H+/Na+ transport) ([2]; concentration 0.000512 nM) | Supplementary Figure 5 dose-response value (H+/Na+ transport) ([2]; concentration 0.00256 nM) | Supplementary Figure 5 dose-response value (H+/Na+ transport) ([2]; concentration 0.0128 nM) | Supplementary Figure 5 dose-response value (H+/Na+ transport) ([2]; concentration 0.064 nM) | Supplementary Figure 5 dose-response value (H+/Na+ transport) ([2]; concentration 0.32 nM) | Supplementary Figure 5 dose-response value (H+/Na+ transport) ([2]; concentration 1.6 nM) | Supplementary Figure 5 dose-response value (H+/Na+ transport) ([2]; concentration 8 nM) | Supplementary Figure 5 dose-response value (H+/Na+ transport) ([2]; concentration 40 nM) | Supplementary Figure 5 dose-response value (H+/Na+ transport) ([2]; concentration 200 nM) | other results |
| --- | --- | --- | --- | --- | --- | --- | --- | --- | --- | --- | --- | --- | --- | --- | --- | --- | --- | --- | --- | --- | --- |
| CNC(=O)C[C@@H](NC(=O)[C@@H](NC(=O)[C@@H](CC(C)C)NC(=O)[C@H](C)NC(=O)[C@@H](CC(C)C)NC(=O)[C@H](C)NC(=O)CNC(=O)[C@@H](NC=O)C(C)C)C(C)C)C(=O)N[C@@H](Cc1c[nH]c2ccccc12)C(=O)N[C@H](CC(C)C)C(=O)N[C@@H](Cc1c[nH]c2ccccc12)C(=O)N[C@H](CC(C)C)C(=O)N[C@@H](Cc1c[nH]c2ccccc12)C(=O)N[C@@H](C(=O)N[C@@H](Cc1c[nH]c2ccccc12)C(=O)NCCO)[C@H](C)O [B22] (For-VGA[dL]A[dL]V[dD](NHMe)W[dL]W[dL]W[dT]W-NHCH2CH2OH) | 5.233 and 5.708 and 3.745 | 6.399 and 0.9122 and 2 | 2.405 and 9.3526 and 2.534 | 4.116 and 2.091 and 9.6371 | 3.439 and -1.283 and 7.2259 | 12.4052 and 7.371 and 12.8868 | 24.0812 and 19.193 and 19.2236 | 21.9455 and 34.569 and 23.6152 | 30.6863 and 31.8474 and 39.9799 | 57.1747 and 48.6012 and 49.2408 | 70.9515 and 65.7371 and 71.376 | 3.488 and 0.6119 and 2.737 | 2.255 and -0.3059 and 2.73 | 4.874 and 2.041 and 3.252 | 5.2777 and 5.073 and 4.243 | 9.536 and 13.0972 and 10.1736 | 28.0205 and 30.7244 and 31.4442 | 63.0425 and 64.573 and 66.6211 | 71.1735 and 74.4694 and 76.8331 | 80.49 and 75.6285 and 73.1074 | Supplementary Figure 5 dose-response value (H+/Na+ transport) ([2]; concentration 1000 nM): 79.8358 and 79.3757 and 78.5441; Supplementary Figure 5 dose-response value (H+/Na+ transport) ([2]; concentration 5000 nM): 88.1657 and 79.255 and 76.0319; EC50 [2, 9]: 2.49 nM; EC50 [2, 10]: 2.93 nM; EC50 [2, 11]: 1.94 nM; EC50 [2, 12]: 2.5 nM; EC50 [2, 13]: 2.45 ± 0.5 nM; Antibacterial activity MIC [3]: 1000 nM; antibacterial activity/MIC [3]: 2 µg/mL; Antibacterial activity MIC [4]: > 33 µM; antibacterial activity/MIC [4]: > 64 µg/mL; Antibacterial activity MIC [5]: > 33 µM; antibacterial activity/MIC [5]: > 64 µg/mL; antibacterial activity/MIC [6]: > 64 µg/mL; Antibacterial activity MIC [6]: > 33 µM; antibacterial activity/MIC [7]: 64 µg/mL; Antibacterial activity MIC [7]: 33 µM; antibacterial activity/MIC [8]: > 64 µg/mL |
| CC(C)C[C@@H](NC(=O)[C@H](C)NC(=O)CNC(=O)[C@@H](NC=O)C(C)C)C(=O)N[C@@H](C)C(=O)N[C@@H](C(=O)N[C@H](C(=O)N[C@@H](C(=O)N[C@@H](Cc1c[nH]c2ccccc12)C(=O)N[C@H](CC(C)C)C(=O)N[C@@H](Cc1c[nH]c2ccccc12)C(=O)N[C@H](CC(C)C)C(=O)N[C@@H](Cc1c[nH]c2ccccc12)C(=O)N[C@H](CC(C)C)C(=O)N[C@@H](Cc1c[nH]c2ccccc12)C(=O)NCCO)C(C)C)C(C)C)C(C)C [compound 1, Gramicidin A] (For-VGA[dL]A[dV]V[dV]W[dL]W[dL]W[dL]W-NHCH2CH2OH) | 1.36 and 3.869 and -1.044 | 3.2 and 1.0665 and -1.239 | 3.406 and 6.277 and 1.505 | 4.522 and 0.6394 and 10.119 | 0.03727 and -1.4564 and 8.0175 | 1.309 and 1.672 and 5.415 | 11.9937 and 6.964 and 7.105 | 14.5572 and 22.409 and 17.147 | 26.5638 and 29.1236 and 30.6096 | 36.4056 and 34.1405 and 30.0737 | 57.2698 and 45.8291 and 46.6701 | 0.1393 and -1.026 and 0.8168 | 2.399 and 0.2926 and 2.304 | 3.982 and 3.019 and 2.7829 | 7.464 and 5.495 and 5.604 | 9.988 and 12.6133 and 15.027 | 25.261 and 17.8892 and 24.5099 | 43.5648 and 41.9563 and 41.0019 | 66.4966 and 62.6758 and 58.9306 | 70.2683 and 64.7328 and 64.4099 | EC55.2 value (threshold concentration of one-point ion transport assay) ([2]; H+/Na+ transport): 5.9 nM; Supplementary Figure 5 dose-response value (H+/Na+ transport) ([2]; concentration 1000 nM): 68.3656 and 69.2628 and 73.7672; Supplementary Figure 5 dose-response value (H+/Na+ transport) ([2]; concentration 5000 nM): 72.2926 and 68.3983 and 71.8941; EC50 [2, 9]: 4.66 nM; EC50 [2, 10]: 3.91 nM; EC50 [2, 11]: 4.81 nM; EC50 [2, 12]: 4.5 nM; EC50 [2, 13]: 4.46 ± 0.48 nM; Antibacterial activity MIC [3]: 8.3 nM; antibacterial activity/MIC [3]: 0.016 µg/mL; Antibacterial activity MIC [4]: 1.1 µM; antibacterial activity/MIC [4]: 2 µg/mL; Antibacterial activity MIC [5]: 4.3 µM; antibacterial activity/MIC [5]: 8 µg/mL; antibacterial activity/MIC [6]: 0.063 µg/mL; Antibacterial activity MIC [6]: 0.033 µM; antibacterial activity/MIC [7]: 0.5 µg/mL; Antibacterial activity MIC [7]: 0.27 µM; antibacterial activity/MIC [8]: 32 µg/mL |
